Values quoted from earlier work in patent publication US5929038A, “Pharmaceutical preparations which inhibit hepatitis B virus (HBV) replication” (Choongwae Pharmaceutical Co., Ltd., priority 1992, dated 1999).

System: hepatitis B (HBV infection)
Conditions: cited from earlier work

Nc1ncnc2c1ncn2[C@@H]1O[C@H](COP(=O)(O)O)[C@@H](O)[C@@H]1O [ara-AMP, reference compound]
suppression of HBV infection (clinical use): transiently suppress HBV infection | toxicities (in vivo): often serious toxicities
